Measured values reported in patent US8791143B2, “Anthranilic diamide derivatives having cyclic side-chains” (priority 2010, dated 2014).
Read-outs that look alike come from different tables or passages of the source.

Key:
[1] = system: caterpillars of the armyworm (Spodoptera frugiperda); test: Spodoptera frugiperda test (SPODFR spray treatment); assay type: in vivo
[2] = log P by HPLC on reversed-phase columns (EEC Directive 79/831 Annex V.A8); assay type: physicochemical; settings: for log P (second value after the slash): pH 2.7
[3] = system: larvae of the mustard beetle (Phaedon cochleariae); test: Phaedon test (PHAECO spray treatment)
[4] = system: green peach aphid (Myzus persicae); test: Myzus test (MYZUPE spray treatment); assay type: in vivo; settings: Myzus persicae, 144 h; for inhibition at 100 g/ha / inhibition at 20 g/ha: 6 d, comparison with prior art
[5] = Spodoptera frugiperda, 168 h, application rate 100 g/ha, after 7 days, read-out: activity in % (caterpillars killed)
[6] = reversed-phase C18 HPLC column, pH 2.7, HPLC reversed-phase C18, acidic range pH 2.7 (HCOOH), only or first value of the cell, read-out: log P
[7] = Phaedon cochleariae, 168 h, read-out: activity in % (beetle larvae killed)
[8] = application rate 100 g/ha, after 6 days, read-out: activity in % (aphids killed)
[9] = Spodoptera frugiperda, 168 h, read-out: activity in % (caterpillars killed)
[10] = read-out: activity in % (aphids killed)
[11] = application rate 100 g/ha, after 7 days

Structure (SMILES)	pest or weed control at 100 g/ha [1, 5] [%]	chromatographic logP [2, 6]	pest or weed control at 100 g/ha [3, 7] [%]	pest or weed control at 100 g/ha [1, 9] [%]	chromatographic logP ([2]; pH 2.7, log P)	pest or weed control at 100 g/ha [4, 10] [%]	also measured
O=C(NCc1ccccc1OC(F)(F)F)c1cc(Br)cc(Cl)c1NC(=O)c1cc(Cn2nnc(C(F)(F)F)n2)nn1-c1ncccc1Cl [Example 193]	100	4.3	100				pest or weed control at 100 g/ha [4, 8]: 90%
O=C(NCc1ccc(Cl)cc1)c1cc(Cl)cc(F)c1NC(=O)c1cc(Cn2nnc(C(F)(F)F)n2)nn1-c1ncccc1Cl [Example 206]	100	3.9	100				pest or weed control at 100 g/ha [4, 8]: 100%
Cc1cc(Cl)cc(C(=O)NC(C)c2ccc(Cl)cn2)c1NC(=O)c1cc(Cn2nnc(C(F)(F)F)n2)nn1-c1ncccc1Cl (stereo not drawn) [Example 236]			100	100	3.63	90	
Cc1cc(C#N)cc(C(=O)NC2CCS(=O)(=O)C2)c1NC(=O)c1cc(Cn2nnc(C(F)(F)F)n2)nn1-c1ncccc1Cl (stereo not drawn) [Example 29, 1-(3-chloropyridin-2-yl)-N-{4-cyano-2-[(1,1-dioxidotetrahydrothiophen-3-yl)carbamoyl]-6-methylphenyl}-3-{[5-(trifluoromethyl)-2H-tetrazol-2-yl]methyl}-1H-pyrazole-5-carboxamide]					2.47		pest or weed control at 500 g/ha [1, 9]: 100%; log P (second value after the slash) [2]: 2.17; pest or weed control at 500 g/ha [3, 7]: 100%; pest or weed control at 500 g/ha [4, 10]: 100%; inhibition at 100 g/ha [4]: 100%
Cc1cc(Cl)cc(C(=O)NC(C)C2CCCO2)c1NC(=O)c1cc(Cn2nnc(C(F)(F)F)n2)nn1-c1ncccc1Cl (stereo not drawn) [Example 62]			100	100	3.45	100	
Cc1cc(Cl)cc(C(=O)NCc2ccccc2OC(F)(F)F)c1NC(=O)c1cc(Cn2nnc(C(F)F)n2)nn1-c1ncccc1Cl [Example 150]	100	3.81	100				pest or weed control at 100 g/ha [4, 8]: 100%
Cc1cc(C#N)cc(C(=O)NC2=NCCS2)c1NC(=O)c1cc(Cn2nnc(C(F)(F)C(F)(F)F)n2)nn1-c1ncccc1Cl [Example 48]			100	100	3.49	80	log P (second value after the slash) [2]: 3.18
Cc1cc(C#N)cc(C(=O)NC2CCCC2)c1NC(=O)c1cc(Cn2nnc(C(F)(F)F)n2)nn1-c1ccccc1Cl [No. 3 known WO2007/144100, reference compound]							inhibition at 100 g/ha ([1]; Spodoptera frugiperda, 168 h, 100 g/ha, 7 d, comparison with prior art): 83%; inhibition at 100 g/ha [4]: 0%
Cc1cc(C#N)cc(C(=O)NC2CCC2)c1NC(=O)c1cc(Cn2nnc(C(F)(F)F)n2)nn1-c1ncccc1Cl [No. 1 known WO2007/144100, reference compound]							inhibition at 20 g/ha [4]: 80%
Cc1cc(Cl)cc(C(=O)NC2CCC2)c1NC(=O)c1cc(Cn2nnc(C(F)(F)F)n2)nn1-c1ncccc1Cl [No. 4 known WO2007/144100, reference compound]							inhibition at 20 g/ha ([1]; Spodoptera frugiperda, 168 h, 20 g/ha, 7 d, comparison with prior art): 83%; inhibition at 20 g/ha ([3]; Phaedon cochleariae, 168 h, read-out: % Activity PHAECO): 33%; inhibition at 100 g/ha [4]: 0%
Cc1cc(Cl)cc(C(=O)NCc2ccc([N+](=O)[O-])cc2)c1NC(=O)c1cc(Cn2nnc(C(F)(F)F)n2)nn1-c1ncccc1Cl [Example 97]	100	3.65	100				pest or weed control at 100 g/ha [4, 8]: 90%
Cc1cc(Cl)cc(C(=O)NC2=NCCS2)c1NC(=O)c1cc(Cn2nnc(C(F)(F)F)n2)nn1-c1ncccc1Cl [Example 45]			100	100	3.5	100	log P (second value after the slash) [2]: 3.14
Cc1cc(Cl)cc(C(=O)NC2CCS(=O)(=O)C2)c1NC(=O)c1cc(Cn2nnc(C(F)(F)F)n2)nn1-c1ncccc1Cl (stereo not drawn) [Example 34]			100	100	2.78	100	
Cc1cc(C#N)cc(C(=O)NC2CCSCC2)c1NC(=O)c1cc(Cn2nnc(C(F)(F)F)n2)nn1-c1ccccc1Cl [Example 58]		3.65	100				pest or weed control at 100 g/ha [4, 8]: 100%
Cc1cc(Cl)cc(C(=O)NN2CCN(C)C2=O)c1NC(=O)c1cc(Cn2nnc(C(F)(F)F)n2)nn1-c1ncccc1Cl [Example 41]			100	100	2.64	80	
Cc1cc(Cl)cc(C(=O)NC2CS(=O)(=O)CC2O)c1NC(=O)c1cc(Cn2nnc(C(F)(F)F)n2)nn1-c1ncccc1Cl (stereo not drawn) [Example 35]			100	100	2.58	80	
Cc1cc(C#N)cc(C(=O)NC2COC2)c1NC(=O)c1cc(Cn2nnc(C(F)(F)F)n2)nn1-c1ncccc1Cl [Example 1]					2.49	90	activity in % (caterpillars killed) [1, 11]: 100%; activity in % (beetle larvae killed) [3, 11]: 100%; inhibition at 20 g/ha [4]: 100%
Cc1cc(C#N)cc(C(=O)NC2CSC2)c1NC(=O)c1cc(Cn2nnc(C(F)(F)F)n2)nn1-c1ccccc1Cl [Example 25]	100	3.46	100				pest or weed control at 100 g/ha [4, 8]: 100%
Cc1cc(Cl)cc(C(=O)NCc2ccc(F)cn2)c1NC(=O)c1cc(Cn2nnc(C(F)(F)F)n2)nn1-c1ncccc1Cl [Example 224]			100	100	3.24	90	
Cc1cc(Cl)cc(C(=O)NCc2ccc(OC(F)F)cc2)c1NC(=O)c1cc(Cn2nnc(C(F)(F)F)n2)nn1-c1ncccc1Cl [Example 152]	100	3.87	100				pest or weed control at 100 g/ha [4, 8]: 100%
Cc1cc(C#N)cc(C(=O)NC2=NCCS2)c1NC(=O)c1cc(Cn2nnc(C(F)(F)F)n2)nn1-c1ncccc1Cl [Example 46]			100	100	3.11	100	log P (second value after the slash) [2]: 2.75
Cc1cc(C#N)cc(C(=O)NC2CCCC2)c1NC(=O)c1cc(Cn2nnc(C(F)(F)F)n2)nn1-c1ncccc1Cl [No. 2 known WO2007/144100, reference compound]							inhibition at 100 g/ha [4]: 70%
Cc1cc(C#N)cc(C(=O)NCc2ccc3c(c2)OCO3)c1NC(=O)c1cc(Cn2nnc(C(F)(F)F)n2)nn1-c1ccccc1Cl [Example 182]	83	3.64	100				
Cc1cc(Cl)cc(C(=O)NCc2cccc(Cl)c2)c1NC(=O)c1cc(Cn2nnc(C(F)(F)F)n2)nn1-c1ncccc1Cl [Example 116]			100	100	4.1		
Cc1cc(Cl)cc(C(=O)NC(C)c2ccc(C(F)(F)F)cc2)c1NC(=O)c1cc(Cn2nnc(C(F)(F)F)n2)nn1-c1ncccc1Cl (stereo not drawn) [Example 121]	100	4.32	100				
